Test results from patent publication EP0750618B1, “OXAZOLIDINONE DERIVATIVES AND PHARMACEUTICAL COMPOSITIONS CONTAINING THEM” (priority 1994, dated 1995).
In brackets after ≈: the same amount, converted by molar mass. Read-outs that look alike come from different tables or passages of the source.

Experiments:
[1] = tested on: Staphylococcus epidermidis (UC 12084); experiment: MIC test, standard agar dilution method; type: cell-based; conditions: UC12084, incubated overnight at 35°C, read-out: Minimum Inhibitory Concentrations (MIC) S. enidermidis
[2] = tested on: Mycobacterium tuberculosis; experiment: MIC test, standard agar dilution method; type: cell-based; conditions: read-out: Minimum Inhibitory Concentrations (MIC) M. tuberculosis
Staphylococcus aureus = experiment: MIC test, standard agar dilution method
[3] = tested on: Streptococcus pyogenes (UC 152); experiment: MIC test, standard agar dilution method; conditions: UC152, read-out: Minimum Inhibitory Concentrations (MIC) S. pyogenes
[4] = tested on: Staphylococcus aureus (UC 9213); experiment: Murine Assay procedure (in vivo), survival after intraperitoneal infection; conditions: UC9213, 144 h, oral administration one hour and five hours after infection, female mice infected i.p. with S. aureus UC 9213, survival over six days, probit analysis
Experimental: Groups of female mice (six mice of 18-20 grams each) were injected intraperitoneally with Staphylococcus aureus (UC 9213) bacteria which were thawed just prior to use and suspended in brain heart infusion with 4% brewer's yeast (Staphylococcus aureus) or brain heart infusion (Streptococcus species). Antibiotic treatment at six dose levels per drug (compound) was administered one hour and five hours after infection by either oral intubation or subcutaneous routes. Survival was observed daily for six days. ED50 values based on mortality ratios were calculated using probit analysis.

[5] = UC9213, read-out: Minimum Inhibitory Concentrations (MIC) S. aureus

Structure (SMILES) | MIC [1] [µg/mL] | MIC [2] [µg/mL] | MIC (Staphylococcus aureus; [5]) [µg/mL] | MIC [3] [µg/mL] | ED50 [4] [mg/kg] | MIC (Staphylococcus aureus; UC9218, read-out: Minimum Inhibitory Concentrations (MIC) S. aureus) [µg/mL]
CC(=O)NC[C@H]1CN(c2ccc(N3CCC(O)CC3)c(F)c2)C(=O)O1 [Compound No. 3, (S)-N-{3-[3-fluoro-4-(4-hydroxy-piperidin-1-yl)-phenyl]-2-oxo-oxazolidin-5-ylmethyl}-acetamide] | 2 (≈ 5.69 µM) | 1 (≈ 2.85 µM) | 8 (≈ 22.8 µM) | 2 (≈ 5.69 µM) |  | 
COC(=O)NC1CCN(c2ccc(N3C[C@H](CNC(C)=O)OC3=O)cc2F)CC1 [Compound No. 30, (S)-N-{3-[3-fluoro-4-(4-methoxycarbonylamino-piperidin-1-yl)-phenyl]-2-oxo-oxazolidin-5-ylmethyl}-acetamide] | 2 (≈ 4.9 µM) |  | 4 (≈ 9.79 µM) | 2 (≈ 4.9 µM) | 2.8 | 
CCOC(=O)C1CCN(c2ccc(N3C[C@H](CNC(C)=O)OC3=O)cc2F)CC1 [Compound No. 1, (S)-1-{4-[5-(acetylamino-methyl)-2-oxo-oxazolidin-3-yl]-2-fluoro-phenyl}-piperidine-4-carboxylic acid ethyl ester] | 2 (≈ 4.91 µM) | 1 (≈ 2.45 µM) |  | 2 (≈ 4.91 µM) |  | 8 (≈ 19.6 µM)
CC(=O)NC[C@H]1CN(c2ccc(N3CCC(=O)CC3)c(F)c2)C(=O)O1 [Compound No. 7, (S)-N-{3-[3-fluoro-4-(4-oxo-piperidin-1-yl)-phenyl]-2-oxo-oxazolidin-5-ylmethyl}-acetamide] | 0.5 (≈ 1.43 µM) |  | 2 (≈ 5.72 µM) | 2 (≈ 5.72 µM) | 8.1 | 
CC(=O)NC[C@H]1CN(c2ccc(N3CCC(=NO)CC3)c(F)c2)C(=O)O1 [Compound No. 11, (S)-N-{3-[3-fluoro-4-(4-hydroxyimino-piperidin-1-yl)-phenyl]-2-oxo-oxazolidin-5-ylmethyl}-acetamide] | 1 (≈ 2.74 µM) |  | 2 (≈ 5.49 µM) | 1 (≈ 2.74 µM) | 8.2 | 
COC(=O)NN=C1CCN(c2ccc(N3C[C@H](CNC(C)=O)OC3=O)cc2F)CC1 [Compound No. 31, (S)-N-{3-[3-fluoro-4-(4-methoxycarbonylhydrazono-piperidin-1-yl)-phenyl]-2-oxo-oxazolidin-5-ylmethyl}-acetamide] | 0.5 (≈ 1.19 µM) |  | 2 (≈ 4.75 µM) | 1 (≈ 2.37 µM) | 5 | 
